What was measured:
late watergrass = test: Test Example 1: herbicidal activity, application before weed generation under submerged conditions (Table 16, symbol A); format: in vivo, late watergrass (Echinochloa oryzicola); conditions: amount of applied herbicide 320 g/ha
Procedure, shortened: (§1)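 Emulsion formulation, water-diluted to set dose, was put onto the flooded surface (4 cm depth, alluvial soil) the same day weeds were sown and 2.5-leaf rice transplanted. After 3 weeks at 25-30 °C under glass, each species was rated 0 (≤5% kill) to 5 (≥90% kill).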

Japanese bulrush = test: Test Example 1: herbicidal activity, application before weed generation under submerged conditions (Table 16, symbol B); format: in vivo, Japanese bulrush (Schoenoplectus juncoides); conditions: amount of applied herbicide 320 g/ha
Procedure, shortened: as §1

oval-leafed pondweed = test: Test Example 1: herbicidal activity, application before weed generation under submerged conditions (Table 16, symbol C); format: in vivo, oval-leafed pondweed (Monochoria vaginalis); conditions: amount of applied herbicide 320 g/ha
Procedure, shortened: as §1

barnyard grass [1] = test: Test Example 3: herbicidal effect by foliage application, Wagner pot (Table 18, symbol H); format: in vivo, barnyard grass (Echinochloa crus-galli); conditions: 320 g/ha
Procedure, shortened: (§2)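 Plants were sown in alluvial soil held under 0.1–0.5 cm standing water and grown 14 days in a greenhouse at 25–30 °C. An emulsifiable formulation, water-diluted to the set dose, was then sprayed onto the foliage, and effects were scored three weeks later using previously defined criteria.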

Chinese sprangletop = test: Test Example 3: herbicidal effect by foliage application, Wagner pot (Table 18, symbol D); format: in vivo, chinese sprangletop (Leptochloa chinensis); conditions: 320 g/ha
Procedure, shortened: as §2

rice flat sedge = test: Test Example 3: herbicidal effect by foliage application, Wagner pot (Table 18, symbol E); format: in vivo, rice flat sedge (Cyperus iria); conditions: 320 g/ha
Procedure, shortened: as §2

southern crabgrass [2] = test: Test Example 4: herbicidal effect by soil treatment (Table 19, symbol F); format: in vivo, southern crabgrass (Digitaria ciliaris); conditions: amount of applied herbicide 320 g/ha
Procedure, shortened: (§3)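 Seeds were sown in sterilized diluvial soil and covered with about 1.5 cm of soil. An emulsion formulation diluted with water to a predetermined herbicide amount was sprayed evenly onto the soil surface. Plants grew in a greenhouse at 25° C. to 30° C., and the effect was scored three weeks after application using criteria from an earlier test.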

green foxtail [3] = test: Test Example 4: herbicidal effect by soil treatment (Table 19, symbol G); format: in vivo, green foxtail (Setaria viridis); conditions: amount of applied herbicide 320 g/ha
Procedure, shortened: as §3

barnyard grass [4] = test: Test Example 4: herbicidal effect by soil treatment (Table 19, symbol H); format: in vivo, barnyard grass (Echinochloa crus-galli); conditions: amount of applied herbicide 320 g/ha
Procedure, shortened: as §3

wild oat [5] = test: Test Example 4: herbicidal effect by soil treatment (Table 19, symbol I); format: in vivo, wild oat (Avena fatua); conditions: amount of applied herbicide 320 g/ha
Procedure, shortened: as §3

blackgrass [6] = test: Test Example 4: herbicidal effect by soil treatment (Table 19, symbol J); format: in vivo, blackgrass (Alopecurus myosuroides); conditions: amount of applied herbicide 320 g/ha
Procedure, shortened: as §3

Italian ryegrass [7] = test: Test Example 4: herbicidal effect by soil treatment (Table 19, symbol K); format: in vivo, Italian ryegrass (Lolium multiflorum); conditions: amount of applied herbicide 320 g/ha
Procedure, shortened: as §3

windgrass [8] = test: Test Example 4: herbicidal effect by soil treatment (Table 19, symbol L); format: in vivo, windgrass (Apera spica-venti); conditions: amount of applied herbicide 320 g/ha
Procedure, shortened: as §3

velvetleaf [9] = test: Test Example 4: herbicidal effect by soil treatment (Table 19, symbol M); format: in vivo, velvetleaf (Abutilon theophrasti); conditions: amount of applied herbicide 320 g/ha
Procedure, shortened: as §3

redroot pigweed [10] = test: Test Example 4: herbicidal effect by soil treatment (Table 19, symbol N); format: in vivo, redroot pigweed (Amaranthus retroflexus); conditions: amount of applied herbicide 320 g/ha
Procedure, shortened: as §3

lambsquarters [11] = test: Test Example 4: herbicidal effect by soil treatment (Table 19, symbol O); format: in vivo, lambsquarters (Chenopodium album); conditions: amount of applied herbicide 320 g/ha
Procedure, shortened: as §3

chickweed [12] = test: Test Example 4: herbicidal effect by soil treatment (Table 19, symbol P); format: in vivo, common chickweed (Stellaria media); conditions: amount of applied herbicide 320 g/ha
Procedure, shortened: as §3

southern crabgrass [13] = test: Test Example 5: herbicidal effect by foliage application, plastic box (Table 20, symbol F); format: in vivo, southern crabgrass (Digitaria ciliaris); conditions: amount of applied herbicide 320 g/ha; foliage application after 14-day growth; evaluated three weeks after application
Procedure, shortened: (§4)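 Plants sown in sterilized diluvial soil and grown 14 days in a greenhouse at 25° C to 30° C, then sprayed on the foliage with the compound's emulsion diluted in water to a predetermined herbicide amount. Injury to weeds and crops scored three weeks after application on a visual rating scale.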

green foxtail [14] = test: Test Example 5: herbicidal effect by foliage application, plastic box (Table 20, symbol G); format: in vivo, green foxtail (Setaria viridis); conditions: amount of applied herbicide 320 g/ha; foliage application after 14-day growth; evaluated three weeks after application
Procedure, shortened: as §4

barnyard grass [15] = test: Test Example 5: herbicidal effect by foliage application, plastic box (Table 20, symbol H); format: in vivo, barnyard grass (Echinochloa crus-galli); conditions: amount of applied herbicide 320 g/ha; foliage application after 14-day growth; evaluated three weeks after application
Procedure, shortened: as §4

wild oat [16] = test: Test Example 5: herbicidal effect by foliage application, plastic box (Table 20, symbol I); format: in vivo, wild oat (Avena fatua); conditions: amount of applied herbicide 320 g/ha; foliage application after 14-day growth; evaluated three weeks after application
Procedure, shortened: as §4

blackgrass [17] = test: Test Example 5: herbicidal effect by foliage application, plastic box (Table 20, symbol J); format: in vivo, blackgrass (Alopecurus myosuroides); conditions: amount of applied herbicide 320 g/ha; foliage application after 14-day growth; evaluated three weeks after application
Procedure, shortened: as §4

Italian ryegrass [18] = test: Test Example 5: herbicidal effect by foliage application, plastic box (Table 20, symbol K); format: in vivo, Italian ryegrass (Lolium multiflorum); conditions: amount of applied herbicide 320 g/ha; foliage application after 14-day growth; evaluated three weeks after application
Procedure, shortened: as §4

windgrass [19] = test: Test Example 5: herbicidal effect by foliage application, plastic box (Table 20, symbol L); format: in vivo, windgrass (Apera spica-venti); conditions: amount of applied herbicide 320 g/ha; foliage application after 14-day growth; evaluated three weeks after application
Procedure, shortened: as §4

velvetleaf [20] = test: Test Example 5: herbicidal effect by foliage application, plastic box (Table 20, symbol M); format: in vivo, velvetleaf (Abutilon theophrasti); conditions: amount of applied herbicide 320 g/ha; foliage application after 14-day growth; evaluated three weeks after application
Procedure, shortened: as §4

redroot pigweed [21] = test: Test Example 5: herbicidal effect by foliage application, plastic box (Table 20, symbol N); format: in vivo, redroot pigweed (Amaranthus retroflexus); conditions: amount of applied herbicide 320 g/ha; foliage application after 14-day growth; evaluated three weeks after application
Procedure, shortened: as §4

lambsquarters [22] = test: Test Example 5: herbicidal effect by foliage application, plastic box (Table 20, symbol O); format: in vivo, lambsquarters (Chenopodium album); conditions: amount of applied herbicide 320 g/ha; foliage application after 14-day growth; evaluated three weeks after application
Procedure, shortened: as §4

chickweed [23] = test: Test Example 5: herbicidal effect by foliage application, plastic box (Table 20, symbol P); format: in vivo, common chickweed (Stellaria media); conditions: amount of applied herbicide 320 g/ha; foliage application after 14-day growth; evaluated three weeks after application
Procedure, shortened: as §4

persian speedwell = test: Test Example 5: herbicidal effect by foliage application, plastic box (Table 20, symbol R); format: in vivo, Persian speedwell (Veronica persica); conditions: amount of applied herbicide 320 g/ha; foliage application after 14-day growth; evaluated three weeks after application
Procedure, shortened: as §4

| Structure (SMILES) | Herbicidal effect, A: late watergrass (late watergrass) | Herbicidal effect, B: Japanese bulrush (Japanese bulrush) | Herbicidal effect, C: oval-leafed pondweed (oval-leafed pondweed) | herbicidal effect on barnyard grass (H) (barnyard grass [1]) | herbicidal effect on Chinese sprangletop (D) (Chinese sprangletop) | herbicidal effect on rice flat sedge (E) (rice flat sedge) | Herbicidal effect by foliage application, F: southern crabgrass (southern crabgrass [13]) | Herbicidal effect by foliage application, G: green foxtail (green foxtail [14]) | Herbicidal effect by foliage application, H: barnyard grass (barnyard grass [15]) | Herbicidal effect by foliage application, I: wild oat (wild oat [16]) | Herbicidal effect by foliage application, J: blackgrass (blackgrass [17]) | Herbicidal effect by foliage application, K: Italian ryegrass (Italian ryegrass [18]) | Herbicidal effect by foliage application, L: windgrass (windgrass [19]) | Herbicidal effect by foliage application, M: velvetleaf (velvetleaf [20]) | Herbicidal effect by foliage application, N: redroot pigweed (redroot pigweed [21]) | Herbicidal effect by foliage application, O: lambsquarters (lambsquarters [22]) | Herbicidal effect by foliage application, P: chickweed (chickweed [23]) | Herbicidal effect by foliage application, R: persian speedwell (persian speedwell) | further results |
| --- | --- | --- | --- | --- | --- | --- | --- | --- | --- | --- | --- | --- | --- | --- | --- | --- | --- | --- | --- |
| Cc1nn(C)c(=O)c(-c2c(-c3ccc(F)cc3)sc3c(C)cccc23)c1O [4-100] | 3 (Herbicidal rate of 40% or more and less than 70%) | 3 (Herbicidal rate of 40% or more and less than 70%) | 1 (Herbicidal rate of 5% or more and less than 20%) | 2 (Herbicidal rate of 20% or more and less than 40%) | 0 (Herbicidal rate of 5% or less (almost no effect)) | 0 (Herbicidal rate of 5% or less (almost no effect)) | 0 (Herbicidal rate of 5% or less (almost no effect)) | 0 (Herbicidal rate of 5% or less (almost no effect)) | 0 (Herbicidal rate of 5% or less (almost no effect)) | 0 (Herbicidal rate of 5% or less (almost no effect)) | 3 (Herbicidal rate of 40% or more and less than 70%) | 3 (Herbicidal rate of 40% or more and less than 70%) | 1 (Herbicidal rate of 5% or more and less than 20%) | 5 (Herbicidal rate of 90% or more (almost completely withered)) | 4 (Herbicidal rate of 70% or more and less than 90%) | 5 (Herbicidal rate of 90% or more (almost completely withered)) | 5 (Herbicidal rate of 90% or more (almost completely withered)) | 5 (Herbicidal rate of 90% or more (almost completely withered)) | Herbicidal effect by soil treatment, F: southern crabgrass (southern crabgrass [2]): 0 (Herbicidal rate of 5% or less (almost no effect)); Herbicidal effect by soil treatment, G: green foxtail (green foxtail [3]): 1 (Herbicidal rate of 5% or more and less than 20%); Herbicidal effect by soil treatment, H: barnyard grass (barnyard grass [4]): 0 (Herbicidal rate of 5% or less (almost no effect)); Herbicidal effect by soil treatment, I: wild oat (wild oat [5]): 0 (Herbicidal rate of 5% or less (almost no effect)); Herbicidal effect by soil treatment, J: blackgrass (blackgrass [6]): 0 (Herbicidal rate of 5% or less (almost no effect)); Herbicidal effect by soil treatment, K: Italian ryegrass (Italian ryegrass [7]): 0 (Herbicidal rate of 5% or less (almost no effect)); Herbicidal effect by soil treatment, L: windgrass (windgrass [8]): 0 (Herbicidal rate of 5% or less (almost no effect)); Herbicidal effect by soil treatment, M: velvetleaf (velvetleaf [9]): 3 (Herbicidal rate of 40% or more and less than 70%); Herbicidal effect by soil treatment, N: redroot pigweed (redroot pigweed [10]): 3 (Herbicidal rate of 40% or more and less than 70%); Herbicidal effect by soil treatment, O: lambsquarters (lambsquarters [11]): 4 (Herbicidal rate of 70% or more and less than 90%); Herbicidal effect by soil treatment, P: chickweed (chickweed [12]): 3 (Herbicidal rate of 40% or more and less than 70%) |
| CCCC(=O)Oc1c(C)nn(C)c(=O)c1-c1c(-c2ccc3c(c2)OCCO3)sc2cc(F)c(F)cc12 [5-038] | 4 (Herbicidal rate of 70% or more and less than 90%) | 3 (Herbicidal rate of 40% or more and less than 70%) | 4 (Herbicidal rate of 70% or more and less than 90%) | 2 (Herbicidal rate of 20% or more and less than 40%) | 2 (Herbicidal rate of 20% or more and less than 40%) | 4 (Herbicidal rate of 70% or more and less than 90%) | 0 (Herbicidal rate of 5% or less (almost no effect)) | 0 (Herbicidal rate of 5% or less (almost no effect)) | 0 (Herbicidal rate of 5% or less (almost no effect)) | 0 (Herbicidal rate of 5% or less (almost no effect)) | 0 (Herbicidal rate of 5% or less (almost no effect)) | 0 (Herbicidal rate of 5% or less (almost no effect)) | 0 (Herbicidal rate of 5% or less (almost no effect)) | 3 (Herbicidal rate of 40% or more and less than 70%) | 2 (Herbicidal rate of 20% or more and less than 40%) | 1 (Herbicidal rate of 5% or more and less than 20%) | 5 (Herbicidal rate of 90% or more (almost completely withered)) | 5 (Herbicidal rate of 90% or more (almost completely withered)) | F: southern crabgrass, herbicidal effect grade (southern crabgrass [2]): 0 (Herbicidal rate of 5% or less (almost no effect)); G: green foxtail, herbicidal effect grade (green foxtail [3]): 0 (Herbicidal rate of 5% or less (almost no effect)); H: barnyard grass, herbicidal effect grade (barnyard grass [4]): 0 (Herbicidal rate of 5% or less (almost no effect)); I: wild oat, herbicidal effect grade (wild oat [5]): 0 (Herbicidal rate of 5% or less (almost no effect)); J: blackgrass, herbicidal effect grade (blackgrass [6]): 0 (Herbicidal rate of 5% or less (almost no effect)); K: Italian ryegrass, herbicidal effect grade (Italian ryegrass [7]): 0 (Herbicidal rate of 5% or less (almost no effect)); L: windgrass, herbicidal effect grade (windgrass [8]): 0 (Herbicidal rate of 5% or less (almost no effect)); M: velvetleaf, herbicidal effect grade (velvetleaf [9]): 0 (Herbicidal rate of 5% or less (almost no effect)); N: redroot pigweed, herbicidal effect grade (redroot pigweed [10]): 2 (Herbicidal rate of 20% or more and less than 40%); O: lambsquarters, herbicidal effect grade (lambsquarters [11]): 4 (Herbicidal rate of 70% or more and less than 90%); P: chickweed, herbicidal effect grade (chickweed [12]): 0 (Herbicidal rate of 5% or less (almost no effect)) |

Source: patent US20230085307A1, “PYRIDAZINONE COMPOUND AND HERBICIDE” (NISSAN CHEMICAL CORPORATION, priority 2019, published 2023)
